The values that follow come from patent US5349127A, “Expression of herbicide metabolizing cytochromes P450” (priority 1992, dated 1994).

The subject of data set [1] is S. griseus PH3832. The data set can be described thus: Metabolism of 10001 by strains transformed with pPAT108 (Example 14). It is filed as in vitro ADME, Streptomyces griseus. Particulars: substrate 10001 120 ug/ml. Here is the method:
S. griseolus PH2003, S. griseus PH4001, S. ambofaciens PH4002, and S. lividans JI1326 were transformed with the plasmid pPAT108. The transformed S. griseolus strain, PH3826, was cultured for 24 hours in 150 mls of sporulation broth with 5 ug/ml thiostrepton. The transformed S. griseus strain, PH3832, and the transformed S. ambofaciens strain, PH3834, were cultured for 24 hours in 150 mls of trypticase soy broth with 5 ug/ml thiostrepton. The transformed S. lividans strain, PH3822, was similarly cultured in 150 mls of YEME broth with 5 ug/ml thiostrepton. Three hours before harvesting the cells, 50 mls of fresh medium of the same type with 5 ug/ml thiostrepton was added to each culture. The cells from each of the cultures were harvested by centrifugation, washed twice with 50 mMMOPS, pH7.2 and resuspended in five cell volumes of MOPS containing 0.2% glucose and 120 ug/ml of the sulfonylurea 10001. The cell suspensions were incubated at 30° C. with shaking and aliquots were removed at 0.5, 1, 2 and 4 hours. The supernatant of each aliquot was analyzed by HPLC and the concentration of the sulfonylurea compound 10001 and its metabolites 10002 and 10003 were determined.

In data set [2] the test system is leaves of transformed tobacco. Put plainly: Metabolism of 10001 in excised tobacco leaves (Example 20). Type of data set: in vitro ADME, Nicotiana tabacum. Particulars: plants transformed with pSSU-SU111 and pCab-SU131, 21 hours. Here is the method: Plants were grown from tobacco seed produced by self-pollinated transformed plants in Metro-Mix® 350 under 16 hour light (light intensity of 400 μEinsteins per second per square meter at pot level, 22° C. and 80% relative humidity) followed by 8 hours of dark (18° C. and 70 to 80% relative humidity) and watered three times daily with half strength Hoagland's solution. The presence of the cytochrome P450 protein in individual plants was confirmed by Western blot analysis before testing for sulfonylurea metabolism.
During growth, the tobacco plants produced leaves attached to the main stalk, none of which were of the same age or size. […]
Individual leaves were extracted with 30 ml acetone/water (80%/20% by volume) for 1 minute in a Sorvall® Omni-Mixer. […] 10015 and its metabolites were detected at 254 nm while ^14 C-10001 and its metabolites were detected with a Radiomatic Flo-One® detector. A diode array detector was used in separate experiments to obtain the absorbance spectra of the 10015 metabolite and an 10014 standard in the HPLC analysis of several extracts (HPLC method is described in Romesser et al., Biochem. Biophys. Res. Comm., 140:650-659 (1986)). Comparison of the metabolite absorbance spectrum with that of the 10014 confirmed the metabolite's identity. […]

In the case of `CCOC(=O)c1ccccc1S(=O)(=O)NC(=O)Nc1nc(Cl)cc(OC)n1` [compound 10001, N-[(4-chloro-6-methoxy-pyrimidin-2-yl)aminocarbonyl]-2-ethoxycarbonylbenzenesulfonamide], the concentration in supernatant in data set [1] (0.5 h) was determined as 281 µM; in data set [1] (1.0 h), 238 µM; in data set [1] (2.0 h), 177 µM; in data set [1] (4.0 h) it was 77 µM. In addition, the “extent of metabolism versus leaf tissue of pAGS112 plants” value in data set [2] is given as “metabolized to a significantly greater extent”.

`CCOC(=O)c1ccccc1S(=O)(=O)NC(=O)Nc1nc(O)cc(Cl)n1` [compound 10002, N-[(4-chloro-6-hydroxy-pyrimidin-2-yl)aminocarbonyl]-2-ethoxycarbonylbenzenesulfonamide]: the “metabolite production versus leaf tissue of pAGS112 plants” value in data set [2] (substrate 10001) is on record as “more 10002 was produced”.

On to `COc1cc(Cl)nc(NC(=O)NS(=O)(=O)c2ccccc2C(=O)O)n1` [compound 10003, N-[(4-chloro-6-methoxy-pyrimidin-2-yol)aminocarbonyl]-2-carboxybenzenesulfonamide], for which the concentration in supernatant in data set [1] (0.5 h) was 9 µM; in data set [1] (1.0 h) it was 26 µM; in data set [1] (2.0 h), 46 µM; in data set [1] (4.0 h) it was 80 µM.
